Measurements reported in patent US20060063720A1, “Oxaliplatin solution concentrate” (priority 2004, published 2006).

Experiments:
[1] = cited from earlier work
[2] = Solubility of oxaliplatin in aqueous carbohydrate solutions (saturated solution supernatant, HPLC; pH of saturated solution); details: for Oxaliplatin concentration of the saturated solution: pH not adjusted; for pH of the saturated solution: oxaliplatin-saturated

## O=C1[O][Pt-2]2([NH2+]C3CCCC[C@H]3[NH2+]2)[O]C1=O (stereo partly drawn) [Oxaliplatin, cis-oxalato-(trans-1,2-cyclohexanediamine)-platinum(II)]
[1]; at least at concentrations below 1 mg/ml
  Stability in water: not very stable
[1]; ethanol
  Solubility in ethanol: practically insoluble
[1]; methanol
  Solubility in methanol: scarcely soluble
[1]; water
  Solubility in water: soluble
[2]; 0% Glucose
  Oxaliplatin concentration of the saturated solution: 7.66 mg/mL
  pH of the saturated solution: pH 6.1
[2]; 5% Glucose
  Oxaliplatin concentration of the saturated solution: 8.14 mg/mL
  pH of the saturated solution: pH 5.9
[2]; 10% Glucose
  Oxaliplatin concentration of the saturated solution: 10.74 mg/mL
  pH of the saturated solution: pH 5.8
[2]; 10% Lactose
  Oxaliplatin concentration of the saturated solution: 10.12 mg/mL
  pH of the saturated solution: pH 4.3
[2]; 10% Trehalose
  Oxaliplatin concentration of the saturated solution: 10.32 mg/mL
  pH of the saturated solution: pH 4.6
[2]; 20% Glucose
  Oxaliplatin concentration of the saturated solution: 11.85 mg/mL
  pH of the saturated solution: pH 5.7
[2]; 25% Dextran 10
  Oxaliplatin concentration of the saturated solution: 10.90 mg/mL
  pH of the saturated solution: pH 4.8
[2]; 25% Dextran 40
  Oxaliplatin concentration of the saturated solution: 10.85 mg/mL
  pH of the saturated solution: pH 4.2
[2]; 25% Dextran 70
  Oxaliplatin concentration of the saturated solution: 10.90 mg/mL
  pH of the saturated solution: pH 4.1
[2]; 25% Galactose
  Oxaliplatin concentration of the saturated solution: 11.53 mg/mL
  pH of the saturated solution: pH 6.3
[2]; 30% Glucose
  Oxaliplatin concentration of the saturated solution: 12.66 mg/mL
  pH of the saturated solution: pH 5.6
[2]; 40% Glucose
  Oxaliplatin concentration of the saturated solution: 13.54 mg/mL
  pH of the saturated solution: pH 5.6
[2]; 50% Fructose
  Oxaliplatin concentration of the saturated solution: 12.56 mg/mL
  pH of the saturated solution: pH 4.7
[2]; 50% Maltose
  Oxaliplatin concentration of the saturated solution: 17.83 mg/mL
  pH of the saturated solution: pH 3.7
[2]; aqueous solution, 25 °C, water
  solubility: 7000 to 8000 µg/mL
[2]; aqueous solutions with solubilizers, aqueous with cosolvent or surfactant or cyclodextrin
  solubility: > 7000 µg/mL
[2]; glucose, maltose, fructose, galactose, dextran 10, 40, 70, polyethylene glycol 200, 300, 400 and 600 as adjuvants
  Oxaliplatin concentration obtained with adjuvants: more than 7 mg/ml solvent
[2]; water
  solubility: ~7500 µg/mL
[2]; with additional dissolved tonic, pH-adjusting, buffering or preserving adjuvants
  Maximum concentration of oxaliplatin in water: 7 mg/mL
